Assay results as given in ChEMBL document CHEMBL3044776, “Microwave-assisted synthesis, pharmacological evaluation, and QSAR studies of 1,3-diaryl-2-propen-1-ones” (Med Chem Res, 2012).

Columns and labels:
Mus musculus [1] = assay: Toxicity in Mus musculus Swiss albino (mouse) assessed as changes in behavioral pattern at 500 to 2000 mg/kg, po measured after 14 days; format: organism-based; parameters: dose 500-2000 mg/kg, route oral; details: in vivo, 336 h
Mus musculus [2] = assay: Toxicity in Mus musculus Swiss albino (mouse) assessed as abnormal changes in eyes at 500 to 2000 mg/kg, po measured after 14 days; format: organism-based; parameters: dose 500-2000 mg/kg, route oral; details: in vivo, 336 h
Mus musculus [3] = assay: Toxicity in Mus musculus Swiss albino (mouse) assessed as mortality at 500 to 2000 mg/kg, po measured after 14 days; format: organism-based; parameters: dose 500-2000 mg/kg, route oral; details: in vivo, 336 h
Mus musculus [4] = assay: Analgesic activity in Mus musculus Swiss albino (mouse) assessed as inhibition of acetic acid-induced writhing at 160 mg/kg, po administered 30 min prior challenge measured after 5 min of challenge for next 30 min relative to control; format: functional
Mus musculus [5] = assay: Toxicity in Mus musculus Swiss albino (mouse) assessed as abnormal changes in fur at 500 to 2000 mg/kg, po measured after 14 days; format: organism-based; parameters: dose 500-2000 mg/kg, route oral; details: in vivo, 336 h
Mus musculus [6] = assay: Toxicity in Mus musculus Swiss albino (mouse) assessed as abnormal changes in skin at 500 to 2000 mg/kg, po measured after 14 days; format: organism-based; parameters: dose 500-2000 mg/kg, route oral; details: in vivo, 336 h
Rattus norvegicus [7] = assay: Anti-inflammatory activity in Rattus norvegicus Wistar (rat) assessed as inhibition of carrageenan-induced paw edema at 160 mg/kg, po administered 30 min prior to carrageenan challenge measured at 4 hr relative to control; format: functional
Mus musculus [8] = assay: Analgesic activity in Mus musculus Swiss albino (mouse) assessed as inhibition of acetic acid-induced writhing at 10 mg/kg, po administered 30 min prior challenge measured after 5 min of challenge for next 30 min relative to control; format: functional
Rattus norvegicus [9] = assay: Anti-inflammatory activity in Rattus norvegicus Wistar (rat) assessed as inhibition of carrageenan-induced paw edema at 10 mg/kg, po administered 30 min prior to carrageenan challenge measured at 4 hr relative to control; format: functional

SMILES: COc1ccc(C(=O)/C=C/c2ccc(O)c(OC)c2)cc1
- Activity (Mus musculus [1]): Non-toxic
- Activity (Mus musculus [2]): Non-toxic
- Activity (Mus musculus [3]): Non-toxic
- inhibition in vivo at 160 mg/kg (Mus musculus [4]): 89.6%
- Activity (Mus musculus [5]): Non-toxic
- Activity (Mus musculus [6]): Non-toxic
- inhibition in vivo at 160 mg/kg (Rattus norvegicus [7]): 80%

SMILES: COc1ccc(/C=C/C(=O)c2ccc(Br)cc2)cc1
- Activity (Mus musculus [1]): Non-toxic
- Activity (Mus musculus [2]): Non-toxic
- Activity (Mus musculus [3]): Non-toxic
- inhibition in vivo at 160 mg/kg (Mus musculus [4]): 70.8%
- Activity (Mus musculus [5]): Non-toxic
- Activity (Mus musculus [6]): Non-toxic
- inhibition in vivo at 160 mg/kg (Rattus norvegicus [7]): 67.7%

SMILES: COc1ccc(C(=O)/C=C/c2ccc(N(C)C)cc2)cc1
- Activity (Mus musculus [1]): Non-toxic
- Activity (Mus musculus [2]): Non-toxic
- Activity (Mus musculus [3]): Non-toxic
- inhibition in vivo at 160 mg/kg (Mus musculus [4]): 47.9%
- Activity (Mus musculus [5]): Non-toxic
- Activity (Mus musculus [6]): Non-toxic
- inhibition in vivo at 160 mg/kg (Rattus norvegicus [7]): 69.8%

SMILES: CN(C)c1ccc(/C=C/C(=O)c2ccc(Br)cc2)cc1
- Activity (Mus musculus [1]): Non-toxic
- Activity (Mus musculus [2]): Non-toxic
- Activity (Mus musculus [3]): Non-toxic
- inhibition in vivo at 160 mg/kg (Mus musculus [4]): 31.9%
- Activity (Mus musculus [5]): Non-toxic
- Activity (Mus musculus [6]): Non-toxic
- inhibition in vivo at 160 mg/kg (Rattus norvegicus [7]): 54.5%

SMILES: COc1ccc(/C=C/C(=O)c2ccc(-c3ccccc3)cc2)cc1
- Activity (Mus musculus [1]): Non-toxic
- Activity (Mus musculus [2]): Non-toxic
- Activity (Mus musculus [3]): Non-toxic
- inhibition in vivo at 160 mg/kg (Mus musculus [4]): 83.3%
- Activity (Mus musculus [5]): Non-toxic
- Activity (Mus musculus [6]): Non-toxic
- inhibition in vivo at 160 mg/kg (Rattus norvegicus [7]): 74.8%

SMILES: O=C(/C=C/c1ccccc1)c1ccc(-c2ccccc2)cc1
- Activity (Mus musculus [1]): Non-toxic
- Activity (Mus musculus [2]): Non-toxic
- Activity (Mus musculus [3]): Non-toxic
- inhibition in vivo at 160 mg/kg (Mus musculus [4]): 71.5%
- Activity (Mus musculus [5]): Non-toxic
- Activity (Mus musculus [6]): Non-toxic
- inhibition in vivo at 160 mg/kg (Rattus norvegicus [7]): 68.4%

SMILES: COc1cc(/C=C/C(=O)c2ccc(-c3ccccc3)cc2)cc(OC)c1OC
- Activity (Mus musculus [1]): Non-toxic
- Activity (Mus musculus [2]): Non-toxic
- Activity (Mus musculus [3]): Non-toxic
- inhibition in vivo at 160 mg/kg (Mus musculus [4]): 85.4%
- Activity (Mus musculus [5]): Non-toxic
- Activity (Mus musculus [6]): Non-toxic
- inhibition in vivo at 160 mg/kg (Rattus norvegicus [7]): 78.7%

SMILES: O=C(/C=C/c1ccccc1Cl)c1ccc(-c2ccccc2)cc1
- Activity (Mus musculus [1]): Non-toxic
- Activity (Mus musculus [2]): Non-toxic
- Activity (Mus musculus [3]): Non-toxic
- inhibition in vivo at 160 mg/kg (Mus musculus [4]): 85.1%
- Activity (Mus musculus [5]): Non-toxic
- Activity (Mus musculus [6]): Non-toxic
- inhibition in vivo at 160 mg/kg (Rattus norvegicus [7]): 61.9%

SMILES: O=C(/C=C/c1ccc(Cl)cc1)c1ccc(-c2ccccc2)cc1
- Activity (Mus musculus [1]): Non-toxic
- Activity (Mus musculus [2]): Non-toxic
- Activity (Mus musculus [3]): Non-toxic
- inhibition in vivo at 160 mg/kg (Mus musculus [4]): 74.3%
- Activity (Mus musculus [5]): Non-toxic
- Activity (Mus musculus [6]): Non-toxic
- inhibition in vivo at 160 mg/kg (Rattus norvegicus [7]): 52.9%

SMILES: O=C(/C=C/c1ccccc1[N+](=O)[O-])c1ccc(-c2ccccc2)cc1
- Activity (Mus musculus [1]): Non-toxic
- Activity (Mus musculus [2]): Non-toxic
- Activity (Mus musculus [3]): Non-toxic
- inhibition in vivo at 160 mg/kg (Mus musculus [4]): 40.3%
- Activity (Mus musculus [5]): Non-toxic
- Activity (Mus musculus [6]): Non-toxic
- inhibition in vivo at 160 mg/kg (Rattus norvegicus [7]): 45.2%

SMILES: CN(C)c1ccc(/C=C/C(=O)c2ccc(-c3ccccc3)cc2)cc1
- Activity (Mus musculus [1]): Non-toxic
- Activity (Mus musculus [2]): Non-toxic
- Activity (Mus musculus [3]): Non-toxic
- inhibition in vivo at 160 mg/kg (Mus musculus [4]): 72.9%
- Activity (Mus musculus [5]): Non-toxic
- Activity (Mus musculus [6]): Non-toxic
- inhibition in vivo at 160 mg/kg (Rattus norvegicus [7]): 58.7%

SMILES: O=C(/C=C/c1ccccc1O)c1ccc(-c2ccccc2)cc1
- Activity (Mus musculus [1]): Non-toxic
- Activity (Mus musculus [2]): Non-toxic
- Activity (Mus musculus [3]): Non-toxic
- inhibition in vivo at 160 mg/kg (Mus musculus [4]): 75.7%
- Activity (Mus musculus [5]): Non-toxic
- Activity (Mus musculus [6]): Non-toxic
- inhibition in vivo at 160 mg/kg (Rattus norvegicus [7]): 80.6%

SMILES: COc1cc(/C=C/C(=O)c2ccc(-c3ccccc3)cc2)cc(OC)c1
- Activity (Mus musculus [1]): Non-toxic
- Activity (Mus musculus [2]): Non-toxic
- Activity (Mus musculus [3]): Non-toxic
- inhibition in vivo at 160 mg/kg (Mus musculus [4]): 84.7%
- Activity (Mus musculus [5]): Non-toxic
- Activity (Mus musculus [6]): Non-toxic
- inhibition in vivo at 160 mg/kg (Rattus norvegicus [7]): 63.2%

SMILES: O=C(/C=C/c1ccc(O)cc1)c1ccc(-c2ccccc2)cc1
- Activity (Mus musculus [1]): Non-toxic
- Activity (Mus musculus [2]): Non-toxic
- Activity (Mus musculus [3]): Non-toxic
- inhibition in vivo at 160 mg/kg (Mus musculus [4]): 66.7%
- Activity (Mus musculus [5]): Non-toxic
- Activity (Mus musculus [6]): Non-toxic
- inhibition in vivo at 160 mg/kg (Rattus norvegicus [7]): 74.8%

SMILES: O=C(/C=C/c1ccc(F)cc1)c1ccc(-c2ccccc2)cc1
- Activity (Mus musculus [1]): Non-toxic
- Activity (Mus musculus [2]): Non-toxic
- Activity (Mus musculus [3]): Non-toxic
- inhibition in vivo at 160 mg/kg (Mus musculus [4]): 56.5%
- Activity (Mus musculus [5]): Non-toxic
- Activity (Mus musculus [6]): Non-toxic
- inhibition in vivo at 160 mg/kg (Rattus norvegicus [7]): 76.8%

SMILES: O=C(/C=C/c1ccoc1)c1ccc(-c2ccccc2)cc1
- Activity (Mus musculus [1]): Non-toxic
- Activity (Mus musculus [2]): Non-toxic
- Activity (Mus musculus [3]): Non-toxic
- inhibition in vivo at 160 mg/kg (Mus musculus [4]): 51.4%
- Activity (Mus musculus [5]): Non-toxic
- Activity (Mus musculus [6]): Non-toxic
- inhibition in vivo at 160 mg/kg (Rattus norvegicus [7]): 52.9%

SMILES: COc1ccc(C(=O)/C=C/c2ccccc2O)cc1
- Activity (Mus musculus [1]): Non-toxic
- Activity (Mus musculus [2]): Non-toxic
- Activity (Mus musculus [3]): Non-toxic
- inhibition in vivo at 160 mg/kg (Mus musculus [4]): 50.7%
- Activity (Mus musculus [5]): Non-toxic
- Activity (Mus musculus [6]): Non-toxic
- inhibition in vivo at 160 mg/kg (Rattus norvegicus [7]): 76.1%

SMILES: COc1ccc(C(=O)/C=C/c2ccc(Cl)cc2)cc1
- Activity (Mus musculus [1]): Non-toxic
- Activity (Mus musculus [2]): Non-toxic
- Activity (Mus musculus [3]): Non-toxic
- inhibition in vivo at 160 mg/kg (Mus musculus [4]): 48.6%
- Activity (Mus musculus [5]): Non-toxic
- Activity (Mus musculus [6]): Non-toxic
- inhibition in vivo at 160 mg/kg (Rattus norvegicus [7]): 77.6%

SMILES: COc1ccc(C(=O)/C=C/c2ccccc2)cc1 [4'-METHOXYCHALCONE]
- Activity (Mus musculus [1]): Non-toxic
- Activity (Mus musculus [2]): Non-toxic
- Activity (Mus musculus [3]): Non-toxic
- inhibition in vivo at 160 mg/kg (Mus musculus [4]): 25.7%
- Activity (Mus musculus [5]): Non-toxic
- Activity (Mus musculus [6]): Non-toxic
- inhibition in vivo at 160 mg/kg (Rattus norvegicus [7]): 69.8%

SMILES: COc1ccc(/C=C/C(=O)c2ccc(OC)cc2)cc1 [4,4'-DIMETHOXYCHALCONE]
- Activity (Mus musculus [1]): Non-toxic
- Activity (Mus musculus [2]): Non-toxic
- Activity (Mus musculus [3]): Non-toxic
- inhibition in vivo at 160 mg/kg (Mus musculus [4]): 87.5%
- Activity (Mus musculus [5]): Non-toxic
- Activity (Mus musculus [6]): Non-toxic
- inhibition in vivo at 160 mg/kg (Rattus norvegicus [7]): 72.9%

SMILES: CC(=O)Oc1ccccc1C(=O)O [ASPIRIN]
- inhibition in vivo at 10 mg/kg (Mus musculus [8]): 88.9%

SMILES: COc1ccc2c(c1)c(CC(=O)O)c(C)n2C(=O)c1ccc(Cl)cc1 [INDOMETHACIN]
- inhibition in vivo at 10 mg/kg (Rattus norvegicus [9]): 79.3%
